“And” between values parts separate entries of the source, which are not always exact repeats. Equal values may be shown once. Read-outs that look alike come from different tables or passages of the source.
Legend:
K-Ras G12C = K-Ras G12C (Homo sapiens (Human), UniProt P01116+P62937, G12C); assay: Ras-Raf (BRAF RBD) disruption / FRET / MOA assay, KRAS G12C; format: biochemical; settings: KRAS G12C; Ras-Raf disruption/FRET/MOA assay; read-out: IC50* KRAS G12C FRET data
Summary of the method: (§1)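 Compound-driven ternary complex of nucleotide-loaded Ras with cyclophilin A, disrupting BRAF RBD binding. 10-point 3-fold dilution from 30 μM final, 3 h at 25° C, then anti-His Eu-W1024 (10 nM) and anti-GST allophycocyanin (50 nM) for 1.5 h. IC50 from TR-FRET ratio decrease versus DMSO.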

KRAS G12D = KRAS G12D (Homo sapiens (Human), UniProt P01116+P62937, G12D); assay: Ras-Raf (BRAF RBD) disruption / FRET / MOA assay, KRAS G12D; format: biochemical; settings: Ras-Raf disruption/FRET/MOA assay; class symbols; read-out: KRAS G12D FRET data IC50
Sequence of KRAS G12D (P01116-2 other isoform, or with tags, fused parts or gaps G12D): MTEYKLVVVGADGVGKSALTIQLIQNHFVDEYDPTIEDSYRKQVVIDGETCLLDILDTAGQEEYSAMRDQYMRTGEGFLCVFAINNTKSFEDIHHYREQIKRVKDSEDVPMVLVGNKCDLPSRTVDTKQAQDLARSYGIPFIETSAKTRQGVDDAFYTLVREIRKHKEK
Sequence of KRAS G12D (P62937 whole entry): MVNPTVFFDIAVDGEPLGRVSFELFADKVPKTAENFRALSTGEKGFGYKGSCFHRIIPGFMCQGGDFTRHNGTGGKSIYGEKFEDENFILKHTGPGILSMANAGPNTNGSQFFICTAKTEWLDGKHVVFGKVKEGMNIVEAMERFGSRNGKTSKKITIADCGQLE
Summary of the method: as §1

KRAS G13D = KRAS G13D (Homo sapiens (Human), UniProt P01116+P62937, G13D); assay: Ras-Raf (BRAF RBD) disruption / FRET / MOA assay, KRAS G13D; format: biochemical; settings: read-out: IC50* KRAS G13D FRET data
Sequence of KRAS G13D (P01116-2 other isoform, or with tags, fused parts or gaps G13D): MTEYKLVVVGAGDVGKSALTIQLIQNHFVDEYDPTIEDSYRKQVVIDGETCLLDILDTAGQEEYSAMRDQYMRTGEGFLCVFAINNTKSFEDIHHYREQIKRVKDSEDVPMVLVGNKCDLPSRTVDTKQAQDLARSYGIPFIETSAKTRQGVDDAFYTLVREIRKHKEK
Sequence of KRAS G13D (P62937 whole entry): as the sequence (P62937 whole entry) above
Summary of the method: as §1

KRAS G12V = KRAS G12V (Homo sapiens (Human), UniProt P01116+P62937, G12V); assay: Ras-Raf (BRAF RBD) disruption / FRET / MOA assay, KRAS G12V; format: biochemical; settings: read-out: IC50* KRAS G12V FRET data
Sequence of KRAS G12V (P01116-2 other isoform, or with tags, fused parts or gaps G12V): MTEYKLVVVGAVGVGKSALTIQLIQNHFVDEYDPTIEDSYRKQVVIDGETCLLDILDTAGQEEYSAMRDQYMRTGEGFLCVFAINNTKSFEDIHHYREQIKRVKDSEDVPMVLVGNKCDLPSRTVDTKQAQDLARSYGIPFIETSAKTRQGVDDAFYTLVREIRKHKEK
Sequence of KRAS G12V (P62937 whole entry): as the sequence (P62937 whole entry) above
Summary of the method: as §1

NRAS G12C = NRAS G12C (Homo sapiens (Human), UniProt P01111+P62937, G12C); assay: Ras-Raf (BRAF RBD) disruption / FRET / MOA assay, NRAS G12C; format: biochemical; settings: read-out: IC50* NRAS G12C FRET data
Sequence of NRAS G12C (P01111 whole entry G12C): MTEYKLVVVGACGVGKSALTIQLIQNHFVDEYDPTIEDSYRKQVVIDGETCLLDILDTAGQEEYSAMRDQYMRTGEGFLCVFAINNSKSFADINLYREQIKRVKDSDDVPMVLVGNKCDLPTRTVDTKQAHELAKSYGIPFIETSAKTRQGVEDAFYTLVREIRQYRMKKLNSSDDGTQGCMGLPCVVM
Sequence of NRAS G12C (P62937 whole entry): as the sequence (P62937 whole entry) above
Summary of the method: as §1

NCI-H358 (K-Ras G12C) = assay: CellTiter-Glo cell viability assay, NCI-H358; format: cell-based, human; settings: NCI-H358, 5-day treatment, class symbols, read-out: Additional H358 Cell Viability assay data (K-Ras G12C, IC50)
Summary of the method: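 Viability measured by CellTiter-Glo luminescence on day 5 following direct addition of compound to plated cells. Values expressed as percent of mean DMSO signal; curves fitted with a four-parameter logistic model.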

K-Ras G13C = K-Ras G13C (Homo sapiens (Human), UniProt P01116+P62937, G13C); assay: Ras-Raf (BRAF RBD) disruption / FRET / MOA assay, KRAS G13C; format: biochemical; settings: KRAS G13C; Ras-Raf disruption/FRET/MOA assay; read-out: IC50* KRAS G13C FRET data
Sequence of K-Ras G13C (P01116-2 other isoform, or with tags, fused parts or gaps G13C): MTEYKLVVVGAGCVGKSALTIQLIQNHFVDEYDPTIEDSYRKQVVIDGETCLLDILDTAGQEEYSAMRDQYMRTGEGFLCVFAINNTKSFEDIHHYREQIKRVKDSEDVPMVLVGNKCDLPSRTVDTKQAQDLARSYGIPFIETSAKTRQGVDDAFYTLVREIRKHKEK
Sequence of K-Ras G13C (P62937 whole entry): as the sequence (P62937 whole entry) above
Summary of the method: as §1

KRAS G12S = KRAS G12S (Homo sapiens (Human), UniProt P01116+P62937, G12S); assay: Ras-Raf (BRAF RBD) disruption / FRET / MOA assay, KRAS G12S; format: biochemical; settings: Ras-Raf disruption/FRET/MOA assay; class symbols; read-out: KRAS G12S FRET data IC50
Sequence of KRAS G12S (P01116-2 other isoform, or with tags, fused parts or gaps G12S): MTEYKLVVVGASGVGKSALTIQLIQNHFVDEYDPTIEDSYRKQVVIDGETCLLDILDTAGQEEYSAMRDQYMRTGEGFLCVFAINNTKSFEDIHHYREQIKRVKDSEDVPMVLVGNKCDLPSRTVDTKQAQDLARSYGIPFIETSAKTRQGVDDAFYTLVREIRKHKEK
Sequence of KRAS G12S (P62937 whole entry): as the sequence (P62937 whole entry) above
Summary of the method: as §1

KRAS WT = KRAS WT (Homo sapiens (Human), UniProt P01116+P62937); assay: Ras-Raf (BRAF RBD) disruption / FRET / MOA assay, KRAS WT; format: biochemical; settings: read-out: IC50* KRAS WT FRET data
Sequence of KRAS WT (P01116-2 other isoform, or with tags, fused parts or gaps): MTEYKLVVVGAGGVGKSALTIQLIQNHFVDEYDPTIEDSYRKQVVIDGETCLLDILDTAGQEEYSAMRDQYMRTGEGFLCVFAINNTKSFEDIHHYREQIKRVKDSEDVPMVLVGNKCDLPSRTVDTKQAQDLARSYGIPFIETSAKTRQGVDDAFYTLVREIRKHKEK
Sequence of KRAS WT (P62937 whole entry): as the sequence (P62937 whole entry) above
Summary of the method: as §1

[1] = test system: NCI-H358 cells (K-Ras G12C); assay: Potency assay: pERK in NCI-H358 cells; format: cell-based, human; settings: Homo sapiens, NCI-H358; H358 KRAS G12C; read-out: pERK EC50
Summary of the method: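 4 h cpd, 37 °C; 10-pt 3-fold series, 10 mM DMSO top stock, duplicates. Readout pERK: AlphaLISA SureFire Ultra or In-Cell Western (IR-800CW secondary, DRAQ5 DNA stain). IC50, 4-PL fit vs log conc.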

Sequence of K-Ras G12C (P01116-2 other isoform, or with tags, fused parts or gaps G12C): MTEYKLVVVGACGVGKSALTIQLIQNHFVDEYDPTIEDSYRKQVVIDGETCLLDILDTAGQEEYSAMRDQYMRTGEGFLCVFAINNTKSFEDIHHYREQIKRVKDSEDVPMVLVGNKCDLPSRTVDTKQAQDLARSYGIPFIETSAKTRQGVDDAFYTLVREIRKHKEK
Sequence of K-Ras G12C (P62937 whole entry): as the sequence (P62937 whole entry) above

| IC50 (NCI-H358 (K-Ras G12C)) [µM] | SMILES | IC50 (K-Ras G12C) | IC50 (KRAS G12D) | IC50 (KRAS G13D) | IC50 (KRAS G12V) | IC50 (NRAS G12C) | IC50 (NCI-H358 (K-Ras G12C); Homo sapiens, NCI-H358, 120 h) [µM] | IC50 (K-Ras G13C) | IC50 (KRAS G12S) | IC50 (KRAS WT) | EC50 [1] [µM] |
| --- | --- | --- | --- | --- | --- | --- | --- | --- | --- | --- | --- |
| – | CCn1c(-c2cccnc2[C@H](C)OC)c2c3cc(ccc31)-c1csc(n1)C[C@H](NC(=O)[C@H](C)N(C)C(=O)[C@H]1CCN(C(=O)C#CC(C)(C)N3CCC3)C1)C(=O)N1CCC[C@H](N1)C(=O)OCC(C)(C)C2 (atropisomer, axis not shown) [Example A489] | 0.01 to 0.1 µM | > 10 µM | 1 to 10 µM | 1 to 10 µM | 0.01 to 0.1 µM | 0.01 to 0.1 | 1 to 10 µM | 1 to 10 µM | 1 to 10 µM | < 5 |
| – | C=CC(=O)N1CC(OCC(C(=O)N[C@H]2Cc3cccc(c3)-c3ccc4c(c3)c(c(-c3cccnc3[C@H](C)OC)n4CC)CC(C)(C)COC(=O)[C@@H]3CCCN(N3)C2=O)C(C)C)C1 (some centres unmarked) [Example A483] | 0.1 to 1 µM | > 10 µM | > 10 µM | 1 to 10 µM | 0.1 to 1 µM | < 0.01 | 1 to 10 µM | > 10 µM | 1 to 10 µM | < 5 |
| – | CCn1c(-c2cccnc2[C@H](C)OC)c2c3cc(ccc31)-c1cccc(c1)C[C@H](NC(=O)[C@H](C(C)C)N(C)C(=O)[C@@H]1CCN(C(=O)C#CC(C)(C)N3CCC3)C1)C(=O)N1CCC[C@H](N1)C(=O)OCC(C)(C)C2 [Example A476] | 0.01 to 0.1 µM | 1 to 10 µM | 1 to 10 µM | 1 to 10 µM | 0.01 to 0.1 µM | < 0.01 | 0.1 to 1 µM | 1 to 10 µM | 1 to 10 µM | < 5 |
| – | C=CC(=O)N(C)CCC(=O)N(C)[C@H](C(=O)N[C@H]1Cc2cc(O)cc(c2)-c2ccc3c(c2)c(c(-c2cccnc2COC)n3CC)CC(C)(C)COC(=O)[C@@H]2CCCN(N2)C1=O)C(C)C [Example A117] | 0.1 to 1 µM | > 10 µM | 1 to 10 µM | 1 to 10 µM | 0.1 to 1 µM | 0.1 to 1 | 0.1 to 1 µM | 1 to 10 µM | 1 to 10 µM | < 5 |
| – | CCn1c(-c2cccnc2COC)c2c3cc(ccc31)-c1cc(O)cc(c1)C[C@H](NC(=O)[C@H](C(C)C)N(C)C(=O)[C@H]1CCN(C(=O)C#CCN3[C@H](C)COC[C@@H]3C)C1)C(=O)N1CCC[C@H](N1)C(=O)OCC(C)(C)C2 [Example A237] | 0.01 to 0.1 µM | 1 to 10 µM | 1 to 10 µM | 0.1 to 1 µM | 0.01 to 0.1 µM | < 0.01 | 0.1 to 1 µM | 0.1 to 1 µM | 1 to 10 µM | < 5 |
| 0.1 to 1 | CCn1c(-c2cccnc2COC)c2c3cc(ccc31)-c1cc(O)cc(c1)C[C@H](NC(=O)[C@H](C(C)C)N(C)C(=O)[C@H]1CCC(C(=O)/C=C\CN(C)C)C1)C(=O)N1CCC[C@H](N1)C(=O)OCC(C)(C)C2 (some centres unmarked) [Example A164] | 0.01 to 0.1 µM | 1 to 10 µM | 0.1 to 1 µM | 0.1 to 1 µM | 0.01 to 0.1 µM | – | 0.1 to 1 µM | 0.1 to 1 µM | 0.1 to 1 µM | < 5 |
| – | CCn1c(-c2cncnc2)c2c3cc(ccc31)-c1csc(n1)C[C@H](NC(=O)[C@H](C(C)C)N(C)C(=O)[C@H]1CCN(C(=O)C#CCN3CCOCC3)C1)C(=O)N1CCC[C@H](N1)C(=O)OCC(C)(C)C2 [Example A177] | 0.1 to 1 µM | > 10 µM | > 10 µM | > 10 µM | 0.1 to 1 µM | 0.1 to 1 | > 10 µM | > 10 µM | > 10 µM | < 5 |
| – | CCn1c(-c2cnccc2[C@H](C)OC)c2c3cc(ccc31)-c1cccc(c1)C[C@H](NC(=O)[C@H](C1CCCC1)N(C)C(=O)[C@H]1CCN(C(=O)C#CCN(C)C)C1)C(=O)N1CCC[C@H](N1)C(=O)OCC(C)(C)C2 [Example A133] | 10 nM to 100 nM and < 10 nM (2×) | 1 to 10 µM | 1 to 10 µM | 1 µM to 10 µM (2×) and > 10 µM | 10 nM to 100 nM and < 10 nM (2×) | 0.01 to 0.1 | 10 nM to 100 nM (2×) and 1 µM to 10 µM | 1 µM to 10 µM (2×) and > 10 µM | 1 µM to 10 µM (2×) and > 10 µM | < 5 |
| – | C/C=C(\C)S(=O)(=O)N1CC[C@H](C(=O)N(C)[C@H](C(=O)N[C@H]2Cc3cc(O)cc(c3)-c3ccc4c(c3)c(c(-c3cccnc3[C@H](C)OC)n4CC)CC(C)(C)COC(=O)[C@@H]3CCCN(N3)C2=O)C(C)C)C1 (atropisomer, axis not shown) [Example A306] | 0.1 to 1 µM | 1 to 10 µM | 0.1 to 1 µM | 0.1 to 1 µM | 0.1 to 1 µM | 0.01 to 0.1 | 0.01 to 0.1 µM | 0.1 to 1 µM | 0.1 to 1 µM | < 5 |
| – | CCn1c(-c2cccnc2COC)c2c3cc(ccc31)-c1cc(O)cc(c1)C[C@H](NC(=O)[C@H](C(C)C)N(C)C(=O)[C@H]1CCN(C(=O)C#CCOC)C1)C(=O)N1CCC[C@H](N1)C(=O)OCC(C)(C)C2 (atropisomer, axis not shown) [Example A135] | 0.01 to 0.1 µM and < 0.01 µM | 1 to 10 µM and > 10 µM | 1 to 10 µM and > 10 µM | 0.1 to 1 µM and 1 to 10 µM | 0.01 to 0.1 µM and < 0.01 µM | 0.01 to 0.1 | 0.01 to 0.1 µM and 0.1 to 1 µM | 0.1 to 1 µM and 1 to 10 µM | 1 to 10 µM and > 10 µM | < 5 |
| – | CCn1c(-c2cccnc2[C@H](C)OC)c2c3cc(ccc31)-c1csc(n1)C[C@H](NC(=O)CCOC1CN(C(=O)C#CC(C)(C)N3CCC3)C1)C(=O)N1CCC[C@H](N1)C(=O)OCC(C)(C)C2 (atropisomer, axis not shown) [Example A477] | < 0.01 µM | > 10 µM | > 10 µM | 1 to 10 µM | 0.01 to 0.1 µM | 0.01 to 0.1 | 1 to 10 µM | > 10 µM | 1 to 10 µM | < 5 |
| – | C=CC(=O)N1CC(OC(=O)N(C)[C@H](C(=O)N[C@H]2Cc3cccc(c3)-c3ccc4c(c3)c(c(-c3cccnc3[C@H](C)OC)n4CC)CC(C)(C)COC(=O)[C@@H]3CCCN(N3)C2=O)C(C)C)C1 (atropisomer, axis not shown) [Example A445] | 0.01 to 0.1 µM | > 10 µM | 1 to 10 µM | 1 to 10 µM | 0.01 to 0.1 µM | < 0.01 | 0.1 to 1 µM | 1 to 10 µM | 1 to 10 µM | < 5 |
| – | C=CC(=O)N1CC[C@]2(CCN([C@H](C(=O)N[C@H]3Cc4cccc(c4)-c4ccc5c(c4)c(c(-c4cccnc4[C@H](C)OC)n5CC)CC(C)(C)COC(=O)[C@@H]4CCCN(N4)C3=O)C(C)C)C2=O)C1 (atropisomer, axis not shown) [Example A470] | 0.1 to 1 µM | 1 to 10 µM | 1 to 10 µM | 1 to 10 µM | 0.1 to 1 µM | 0.01 to 0.1 | 0.1 to 1 µM | 0.1 to 1 µM | 1 to 10 µM | < 5 |
| – | C=CC(=O)N1CC[C@H](C(=O)N(C)[C@H](C(=O)N[C@H]2Cc3csc(n3)-c3ccc4c(c3)c(c(-c3cccnc3COC)n4CC)CC(C)(C)COC(=O)[C@@H]3CCCN(N3)C2=O)C(C)C)C1 [Example A118, (2S)-N-[(7S,13S)-21-ethyl-20-[2-(methoxymethyl)pyridin-3-yl]-17,17-dimethyl-8,14-dioxo-15-oxa-3-thia-9,21,27,28-tetraazapentacyclo[17.5.2.1^2,^5.1^9,^13.0^22,^26]octacosa-1(25),2(28),4,19,22(26),23-hexaen-7-yl]-3-methyl-2-{N-methyl-1-[(3S)-1-(prop-2-enoyl)pyrrolidin-3-yl]formamido}butanamide] | 0.1 to 1 µM | > 10 µM | > 10 µM | > 10 µM | 0.1 to 1 µM | 0.1 to 1 | > 10 µM | > 10 µM | > 10 µM | < 5 |

Reference: patent US11566007B2, “Ras inhibitors” (Revolution Medicines, Inc., priority 2019, dated 2023)
